Test results from patent publication US20240173419A1, “CDK2 DEGRADERS AND USES THEREOF” (Kymera Therapeutics, Inc., priority 2022, published 2024).

Molecular target: T1, CDK2 (Homo sapiens, UniProt P24941)
T1 construct: endogenous in cells; host or cells: MKN1 cells
Experiment: CDK2 degradation in MKN1 cells (AlphaLISA)
Assay type: cell-based
Parameters: key to CDK2 degradation 14 h: Mean external-Abs DC50 (nM): A (<100 nM); B (≥100-500 nM); C (>500-1000 nM); D (>1000 nM); E (not achieved)
Settings: 14 h incubation; for DC50: read-out: CDK2 degradation 14 h: Mean external-Abs DC50
Method in brief: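 MKN1 cells (2e4/well) treated 14 h at 37° C with 11-point 1:5 dilutions (0.001 nM-10 μM, 0.1% DMSO). CDK2 in lysates quantified by AlphaLISA, no-cell background subtracted; DC50 from four-parameter logistic fit.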

SMILES | CDK2 degradation 14 h: Average Dmax % | DC50 [nM] | CDK2 degradation 14 h: Mean external-Abs DC50 (nM)
Cc1cc(S(=O)(=O)NCCCN2CCN(CC3CCN(c4ccc5c(c4)n(C)c(=O)n5C4CCC(=O)NC4=O)CC3)CC2)ccc1Nc1ncc2cc(Cl)c(=O)n(C3CCCC3)c2n1 (stereo not shown) [I-431] | A (A (>75% o)) | < 100 | 
Cc1cc(S(=O)(=O)NCCO[C@H]2CC[C@H](CN3CCN(c4ccc5c(c4)n(C)c(=O)n5C4CCC(=O)NC4=O)CC3)CC2)ccc1Nc1ncc2cc(Cl)c(=O)n(C3CCCC3)c2n1 (stereo partly shown) [I-432] | A (A (>75% o)) | < 100 | 
Cc1cc(S(=O)(=O)NCCCN2CCC(OC3CCN(c4ccc5c(c4)n(C)c(=O)n5C4CCC(=O)NC4=O)CC3)CC2)ccc1Nc1ncc2cc(Cl)c(=O)n(C3CCCC3)c2n1 (stereo not shown) [I-433] | A (A (>75% o)) | < 100 | 
Cc1cc(S(=O)(=O)NCCOC2CCN(CC3CCN(c4ccc5c(c4)n(C)c(=O)n5C4CCC(=O)NC4=O)CC3)CC2)ccc1Nc1ncc2cc(Cl)c(=O)n(C3CCCC3)c2n1 (stereo not shown) [I-434] | A (A (>75% o)) | < 100 | 
Cc1cc(S(=O)(=O)N(C)CCO[C@H]2CC[C@H](CN3CCC(c4ccc5c(c4)n(C)c(=O)n5C4CCC(=O)NC4=O)CC3)CC2)ccc1Nc1ncc2cc(Cl)c(=O)n(C3CCCC3)c2n1 (stereo partly shown) [I-435] | A (A (>75% o)) | < 100 | 
Cc1cc(S(=O)(=O)N2CCC(CN(C)C3CCN(c4cccc5c4n(C)c(=O)n5C4CCC(=O)NC4=O)CC3)CC2)ccc1Nc1ncc2cc(Cl)c(=O)n(C3CCCC34CC4)c2n1 (stereo not shown) [I-436] | A (A (>75% o)) | < 100 | 
Cc1cc(S(=O)(=O)N2CCC(CN(C)C3CCN(c4cccc5c4n(C)c(=O)n5C4CCC(=O)NC4=O)CC3)CC2)ccc1Nc1ncc2cc(Cl)c(=O)n(C(C)C)c2n1 (stereo not shown) [I-437] | A (A (>75% o)) | < 100 | 
Cc1cc(S(=O)(=O)N2CCC(CN(C)C3CCN(c4cccc5c4n(C)c(=O)n5C4CCC(=O)NC4=O)CC3)CC2)ccc1Nc1ncc2cc(C(F)F)c(=O)n(C3CCCC3)c2n1 (stereo not shown) [I-438] | A (A (>75% o)) | < 100 | 
Cc1cc(S(=O)(=O)NCCO[C@H]2CC[C@H](CN3CCC(c4ccc5c(c4)n(C)c(=O)n5C4CCC(=O)NC4=O)CC3)CC2)ccc1Nc1ncc2cc(Cl)c(=O)n(C3CCCC34CC4)c2n1 (stereo partly shown) [I-439] | A (A (>75% o)) | < 100 | 
Cc1cc(S(=O)(=O)NCCO[C@H]2CC[C@H](CN3CCC(c4ccc5c(c4)n(C)c(=O)n5C4CCC(=O)NC4=O)CC3)CC2)ccc1Nc1ncc2cc(Cl)c(=O)n(C(C)C)c2n1 (stereo partly shown) [I-440] | A (A (>75% o)) | < 100 | 
Cc1cc(S(=O)(=O)NCCO[C@H]2CC[C@H](CN3CCC(c4ccc5c(c4)n(C)c(=O)n5C4CCC(=O)NC4=O)CC3)CC2)ccc1Nc1ncc2cc(C(F)F)c(=O)n(C3CCCC3)c2n1 (stereo partly shown) [I-441] | A (A (>75% o)) | < 100 | 
Cc1cc(S(=O)(=O)N2CCC(CN(C)C3CCN(c4cccc5c4n(C)c(=O)n5C4CCC(=O)NC4=O)CC3)CC2)ccc1Nc1ncc2cc(Cl)c(=O)n(C3CCCC3)c2n1 (stereo not shown) [I-442] | A (A (>75% o)) | < 100 | 
Cc1cc(S(=O)(=O)NCCOC2CC3(C2)CN(Cc2ccc4c(c2)n(C)c(=O)n4C2CCC(=O)NC2=O)C3)ccc1Nc1ncc2ccc(=O)n(C3CCCC3)c2n1 (stereo not shown) [I-445] | A (A (>75% o)) | < 100 | 
Cc1cc(S(=O)(=O)N2CCC(OCC#Cc3cccc4c3n(C)c(=O)n4C3CCC(=O)NC3=O)CC2)ccc1Nc1ncc2ccc(=O)n(C3CCCC3)c2n1 (stereo not shown) [I-447] | D (D (<25%)) | > 1000 | 
Cc1cc(S(=O)(=O)N2CCC(CN(C)C3CCN(Cc4cccc5c4n(C)c(=O)n5C4CCC(=O)NC4=O)CC3)CC2)ccc1Nc1ncc2ccc(=O)n(C3CCCC3)c2n1 (stereo not shown) [I-449] | A (A (>75% o)) | < 100 | 
Cc1cc(S(=O)(=O)N2CCC(CN(C)C3CCN(c4cccc5c4n(C)c(=O)n5C4CCC(=O)NC4=O)CC3)CC2)ccc1Nc1ncc2ccc(=O)n(C3CCCC3)c2n1 (stereo not shown) [I-450] | A (A (>75% o)) | < 100 | 
Cc1cc(S(=O)(=O)N2CCC(CN3CCN(c4cccc5c4n(C)c(=O)n5C4CCC(=O)NC4=O)CC3)CC2)ccc1Nc1ncc2ccc(=O)n(C3CCCC3)c2n1 (stereo not shown) [I-451] | C (C (>25% -50%)) |  | E
Cc1cc(S(=O)(=O)N2CCC(CN3CCN(Cc4cccc5c4n(C)c(=O)n5C4CCC(=O)NC4=O)CC3)CC2)ccc1Nc1ncc2ccc(=O)n(C3CCCC3)c2n1 (stereo not shown) [I-452] | B (B (>50% -75%)) | < 100 | 
Cc1cc(S(=O)(=O)N2CCC(OCCCc3ccc4c(c3)n(C)c(=O)n4C3CCC(=O)NC3=O)CC2)ccc1Nc1ncc2ccc(=O)n(C3CCCC3)c2n1 (stereo not shown) [I-453] | D (D (<25%)) | > 1000 | 
Cc1cc(S(=O)(=O)N2CCC(OCCCc3cccc4c3n(C)c(=O)n4C3CCC(=O)NC3=O)CC2)ccc1Nc1ncc2ccc(=O)n(C3CCCC3)c2n1 (stereo not shown) [I-454] | C (C (>25% -50%)) | > 1000 | 
Cc1cc(S(=O)(=O)N2CCC(OCC#Cc3cccc4c3n(C)c(=O)n4C3CCC(=O)NC3=O)CC2)ccc1Nc1ncc2cc(Cl)c(=O)n(C3CCCC3)c2n1 (stereo not shown) [I-455] | D (D (<25%)) | > 1000 | 
Cc1cc(S(=O)(=O)N2CCC3(CCN(Cc4cccc5c4n(C)c(=O)n5C4CCC(=O)NC4=O)CC3)CC2)ccc1Nc1ncc2ccc(=O)n(C3CCCC3)c2n1 (stereo not shown) [I-458] | B (B (>50% -75%)) | 100 to 500 | 
Cc1cc(S(=O)(=O)N2CCN(CCCCOCCCc3ccc4c(c3)n(C)c(=O)n4C3CCC(=O)NC3=O)CC2)ccc1Nc1ncc2ccc(=O)n(C3CCCC3)c2n1 (stereo not shown) [I-459] | B (B (>50% -75%)) | 100 to 500 | 
Cc1cc(S(=O)(=O)NCCOCCOCCOCCOCCCc2ccc3c(c2)n(C)c(=O)n3C2CCC(=O)NC2=O)ccc1Nc1ncc2c(C)c(Br)c(=O)n(C3CCCC3)c2n1 (stereo not shown) [I-460] | B (B (>50% -75%)) | < 100 | 
Cc1cc(S(=O)(=O)NCCOCCOCCOCCCc2ccc3c(c2)n(C)c(=O)n3C2CCC(=O)NC2=O)ccc1Nc1ncc2cc(Cl)c(=O)n(C3CCCC3)c2n1 (stereo not shown) [I-461] | A (A (>75% o)) | < 100 | 
Cc1cc(S(=O)(=O)N2CC(OCCN3CCC(c4ccc5c(c4)n(C)c(=O)n5C4CCC(=O)NC4=O)CC3)C2)ccc1Nc1ncc2ccc(=O)n(C3CCCC3)c2n1 (stereo not shown) [I-462] | A (A (>75% o)) | < 100 | 
Cc1cc(S(=O)(=O)N2CC3(CC(OCCN4CCC(c5ccc6c(c5)n(C)c(=O)n6C5CCC(=O)NC5=O)CC4)C3)C2)ccc1Nc1ncc2ccc(=O)n(C3CCCC3)c2n1 (stereo not shown) [I-463] | C (C (>25% -50%)) |  | E
Cc1cc(S(=O)(=O)N2CCC(N3CCN(CCCc4ccc5c(c4)n(C)c(=O)n5C4CCC(=O)NC4=O)CC3)CC2)ccc1Nc1ncc2ccc(=O)n(C3CCCC3)c2n1 (stereo not shown) [I-464] | B (B (>50% -75%)) | < 100 | 
Cc1cc(S(=O)(=O)NCCOCCOCCCc2ccc3c(c2)n(C)c(=O)n3C2CCC(=O)NC2=O)ccc1Nc1ncc2c(C)cc(=O)n(C3CCCC3)c2n1 (stereo not shown) [I-466] | D (D (<25%)) | > 1000 | 
